# Source: patent US12121596B2, “Near infrared fluorescent dyes, formulations and related methods” (Washington University, priority 2019, dated 2024)
# Positions of bridges follow the written chain, without caps; N, C: chain ends. Non-standard residues stand in square brackets, D forms with d. Residues, ends and D or L forms follow the SMILES beside them. Primed or numbered codes have the meaning given here. *: point of attachment. X1 = CC1(C)C(/C=C/C=C/C=C/C=C2/N(CCC(=O)*)c3ccc4ccccc4c3C2(C)C)=[N+](CCC(=O)[O-])c2ccc3ccccc3c21; Cypate′ = not defined here
# How the values were obtained:
# diverse tumors = assay: LS838 fluorescence and tumor retention
# 4T1 luc/GFP cells = assay: In vitro blocking of LS301 binding and internalization; type: cell-based, murine
# Procedure: For in vitro blocking studies of LS301, 4T1 luc/GFP cells were treated for 24 h with LS301 alone, blocking peptide LCKLSL plus LS301, scrambled blocking peptide LGKLSL plus LS301, or unlabeled LS301 analog LS637 plus LS301. Cells were prepared for confocal microscopy.
# heart = details: in vivo
# [1] = test system: breast cancer patient-derived xenograft; assay: In vivo NIR imaging of tumor retention; set-up: species or system mice; details: for tumor retention: control experiments, patient-derived xenograft
# Procedure: To establish the various tumor models, nude, Balb/c, or C57BL6 mice were injected with 10^5-10^7 tumor cells subcutaneously on unilateral or bilateral flanks. In some cases, spontaneous tumor models were used. Animals injected subcutaneously with saline served as sham tumor controls. For near-infrared imaging, 100 μL volumes of 60 μM LS301 or cypate in PBS were injected intravenously by lateral tail vein, and animals were imaged using a Pearl Small Animal Imager (LI-COR Biotechnology, Lincoln, NE, USA) at the indicated time points. In some experiments, probes were formulated in 1% albumin in PBS. Animals were shaved using commercially available hair removal equipment and products before imaging. For experiments involving further tissue analysis, animals were anesthetized with isoflurane and euthanized by cervical dislocation under anesthesia. Organs were harvested by surgical dissection. For quantitative organ biodistribution studies, individual regions of interest were drawn around each organ of interest, and fluorescence was quantified using the Pearl Small Animal Imager software.
# [2] = test system: lung (A549), breast (MDA-MB-231 and 4T1), and myeloid leukemia (HL60) cell lines; assay: Cellular uptake in cancer cell lines, live-cell imaging; type: cell-based; details: A549, MDA-MB-231, 4T1, HL60
# Procedure: In general, cultured cancer cells were grown and incubated with the indicated amount of probe in Lab-Tek 8-chambered slides for the indicated time durations. Cells were washed with PBS at selected time points and underwent conventional slide preparation, ICC if indicated, and viewing under epifluorescence or confocal. For live-cell imaging of LS301, internalization at 37° C. in human dermal fibroblasts (Coriell Cell Technologies) and tumor cells including 4T1luc, MDA-MB-231, 5TGM, A549, and HL60 (ATCC) cells were cultured in appropriate media supplemented with 10% […] and penicillin/streptomycin and incubated at 37° C. in 5% CO2 incubator. The cells were grown on Lab-Tek 8-chamber slides (Nunc Inc. Rochester, NY) in the culture medium overnight before the experiment. The compounds were dissolved in 20% DMSO in […] PBS (pH 7.4) (Sigma, St. Louis, MO) for stocking solution and mixed with culture medium to reach the final concentration. Cells were incubated with 1 μM compounds in chamber slides at different time points at 37° C. After LS301 treatment, the culture media was removed and followed by adding culture media containing SYTO 13 nuclear dye from (Thermo Fisher Scientific, Waltham, MA) for 45 minutes at 37° C. For assessing cellular colocalization of LS301 with lipid rafts, the Vybrant AlexaFluor 488 Lipid Raft Labeling Kit (Thermo Fisher Scientific, Waltham, MA, USA) was used per the manufacturer's instructions. […]. LS301 and AlexaFluor 488 fluorescence were imaged using the cypate filter set (Ex/Em 750-800 nm/818-873 nm) and fluorescein isothiocyanate (FITC) filter set (Ex/Em 460-500/510-560 nm), respectively.
compound,measurement,setting,value
"CC1(C)C(/C=C/C=C/C=C/C=C2/N(CCC(=O)N[C@@H]3CSSC[C@@H](C(=O)N[C@@H](Cc4ccc(O)cc4)C(=O)O)NC(=O)[C@@H]4CCCN4C(=O)[C@H](CO)NC(=O)[C@H](CC(=O)O)NC(=O)[C@H](CCCNC(=N)N)NC(=O)CNC3=O)c3ccc4ccccc4c3C2(C)C)=[N+](CCC(=O)[O-])c2ccc3ccccc3c21 [LS838, cypate-Cyclo(Cys-Gly-Arg-Asp-Ser-Pro-Cys)-Tyr-OH] (X1-[dC]GRDSPCY-OH; disulfide 1-7)",retention in tumors,diverse tumors,selectively remains in diverse tumors without significant loss of fluorescence over time
LCKLSL,effect on binding and internalization of LS301 in cells,4T1 luc/GFP cells,inhibited the binding and internalization of LS301
"COc1cccc2c1C(=O)c1c(O)c3c(c(O)c1C2=O)C[C@@](O)(C(=O)CO)C[C@@H]3O[C@H]1C[C@H](NC(=O)CC[N+]2=C(/C=C/C=C/C=C/C=C3/N(CCC(=O)N[C@@H]4CSSC[C@@H](C(=O)N[C@@H](CCCCN)C(=O)O)NC(=O)[C@@H]5CCCN5C(=O)[C@H](CO)NC(=O)[C@H](CC(=O)O)NC(=O)[C@H](CCCNC(=N)N)NC(=O)CNC4=O)c4ccc5ccccc5c4C3(C)C)C(C)(C)c3c2ccc2ccccc32)[C@H](O)[C@H](C)O1 [LS766, doxorubicin-cypate-cyclic(DCys-Gly-Arg-Asp-Ser-Pro-Cys)-Lys-OH]",accumulation in the heart,heart,does not accumulate in the heart
CC1(C)C(/C=C/C=C/C=C/C=C2/N(CCC(=O)O)c3ccc4ccccc4c3C2(C)C)=[N+](CCC(=O)[O-])c2ccc3ccccc3c21 [Cypate],tumor retention,[1],not retained
same,tumor retention with or without albumin formulation,[1]; in vivo,did not retain
same,retention in cell lines,[2],only transient retention
Cypate-cyclo(Cys-Arg-Gly-Asp-Ser-Pro-Cys)-Lys-OH ({Cypate′}-CRGDSPCK-OH; disulfide 1-7) [scrambled LS301 peptide analog],tumor retention,[1],not retained
